Results published in ChEMBL document CHEMBL2163263, “Mechanism inspired development of rationally designed dihydrofolate reductase inhibitors as anticancer agents” (J Med Chem, 2012).
Active and inactive are the calls of the source. No cut-off for these calls is given here.

Legend:
[1] = target: Thymidylate synthase (Homo sapiens) (UniProt P04818); experiment: Binding affinity to thymidylate synthase assessed as change in UV-Vis spectra at 10 uM in HEPES buffer at pH 7.2 by UV-Visible spectroscopy
[2] = target: T1, Dihydrofolate reductase (Homo sapiens) (UniProt P00374); experiment: Binding affinity to DHFR assessed as change in UV-Vis spectra at 10 uM in HEPES buffer at pH 7.2 by UV-Visible spectroscopy
T1 sequence (whole entry): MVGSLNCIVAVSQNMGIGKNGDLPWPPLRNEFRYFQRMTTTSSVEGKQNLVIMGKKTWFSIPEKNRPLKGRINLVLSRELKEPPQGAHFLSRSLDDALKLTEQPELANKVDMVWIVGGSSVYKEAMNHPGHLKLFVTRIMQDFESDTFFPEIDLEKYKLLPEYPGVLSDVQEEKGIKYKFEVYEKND

[3] = (§1) Growth inhibition of human NCI60 cells incubated for 48 hrs by SRB assay; type: functional; settings: NCI60, 48 h
[4] = Total tumor growth inhibition of human NCI60 cells incubated for 48 hrs by SRB assay; type: functional; settings: NCI60, 48 h
[5] = target: T1, Dihydrofolate reductase (Homo sapiens); experiment: Binding affinity to DHFR at 32 mM by [1H]NMR spectroscopy
[6] = Toxicity against human NCI60 cells incubated for 48 hrs by SRB assay; type: cell-based; settings: nci60, 48 h
[7] = Therapeutic index, ratio of LC50 for human NCI60 cells to GI50 for human NCI60 cells; type: cell-based; settings: read-out: TI
[8] = target: T1, Dihydrofolate reductase (Homo sapiens)
Description: Inhibition of DHFR reduction in conversion of DHF to THF in presence of NADPH by DHFR assay

[9] = target: Thymidine phosphorylase (Homo sapiens) (UniProt P19971); experiment: Binding affinity to […] assessed as change in UV-Vis spectra at 10 uM in HEPES buffer at pH 7.2 by UV-Visible spectroscopy
Hs-578T = experiment: Growth inhibition of human Hs578T cells incubated for 48 hrs by SRB assay; type: functional
UACC-257 = experiment: Growth inhibition of human UACC257 cells incubated for 48 hrs by SRB assay; type: functional; settings: UACC-257, 48 h
OVCAR-3 = experiment: Growth inhibition of human OVCAR3 cells incubated for 48 hrs by SRB assay; type: functional; settings: OVCAR-3, 48 h
[10] = target: T1, Dihydrofolate reductase (Homo sapiens); experiment: Binding affinity to DHFR at 48 mM by [1H]NMR spectroscopy
MCF7 = experiment: Growth inhibition of human MCF7 cells incubated for 48 hrs by SRB assay; type: functional; settings: MCF7, 48 h
cells = settings: Homo sapiens, NCI60, 48 h
SR = experiment: Growth inhibition of human SR cells incubated for 48 hrs by SRB assay; type: functional
[11] = target: T1, Dihydrofolate reductase (Homo sapiens); experiment: Inhibition of DHFR reduction in conversion of DHF to THF at 100 uM in presence of NADPH by DHFR assay
[12] = target: T1, Dihydrofolate reductase (Homo sapiens); experiment: Inhibition of DHFR reduction in conversion of DHF to THF at 100 nM in presence of NADPH by DHFR assay
[13] = target: T1, Dihydrofolate reductase (Homo sapiens); experiment: Inhibition of DHFR reduction in conversion of DHF to THF at 1 uM in presence of NADPH by DHFR assay
[14] = target: T1, Dihydrofolate reductase (Homo sapiens); experiment: Inhibition of DHFR reduction in conversion of DHF to THF at 10 uM in presence of NADPH by DHFR assay
A498 = experiment: Growth inhibition of human A498 cells incubated for 48 hrs by SRB assay; type: functional; settings: A498, 48 h
NCI-H522 = experiment: Growth inhibition of human NCI-H522 cells incubated for 48 hrs by SRB assay; type: functional; settings: NCI-H522, 48 h
[15] = target: T1, Dihydrofolate reductase (Homo sapiens); experiment: Inhibition of DHFR reduction in conversion of DHF to THF at 10 nM in presence of NADPH by DHFR assay
MDA-MB-468 = experiment: Growth inhibition of human MDA-MB-468 cells incubated for 48 hrs by SRB assay; type: functional; settings: MDA-MB-468, 48 h
[16] = target: T1, Dihydrofolate reductase (Homo sapiens); experiment: Binding affinity to DHFR by [1H]NMR spectroscopy
NCI60 = experiment: as §1; type: functional
COLO 205 = experiment: Growth inhibition of human COLO205 cells incubated for 48 hrs by SRB assay; type: functional; settings: COLO 205, 48 h, pooled result: one value given for 7 cell lines, strains, targets or settings

Chain of Thymidylate synthase (Homo sapiens) (P04818 2-313 limits assumed): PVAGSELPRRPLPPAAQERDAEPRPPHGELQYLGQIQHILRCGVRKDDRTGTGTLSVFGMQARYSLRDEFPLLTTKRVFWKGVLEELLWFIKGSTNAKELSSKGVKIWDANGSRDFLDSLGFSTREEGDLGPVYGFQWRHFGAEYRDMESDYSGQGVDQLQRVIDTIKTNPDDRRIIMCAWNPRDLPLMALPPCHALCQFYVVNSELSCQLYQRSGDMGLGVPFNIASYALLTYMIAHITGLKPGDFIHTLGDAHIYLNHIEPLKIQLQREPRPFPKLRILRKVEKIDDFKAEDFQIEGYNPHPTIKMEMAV
Chain of Thymidine phosphorylase (Homo sapiens) (P19971 whole entry, looked up): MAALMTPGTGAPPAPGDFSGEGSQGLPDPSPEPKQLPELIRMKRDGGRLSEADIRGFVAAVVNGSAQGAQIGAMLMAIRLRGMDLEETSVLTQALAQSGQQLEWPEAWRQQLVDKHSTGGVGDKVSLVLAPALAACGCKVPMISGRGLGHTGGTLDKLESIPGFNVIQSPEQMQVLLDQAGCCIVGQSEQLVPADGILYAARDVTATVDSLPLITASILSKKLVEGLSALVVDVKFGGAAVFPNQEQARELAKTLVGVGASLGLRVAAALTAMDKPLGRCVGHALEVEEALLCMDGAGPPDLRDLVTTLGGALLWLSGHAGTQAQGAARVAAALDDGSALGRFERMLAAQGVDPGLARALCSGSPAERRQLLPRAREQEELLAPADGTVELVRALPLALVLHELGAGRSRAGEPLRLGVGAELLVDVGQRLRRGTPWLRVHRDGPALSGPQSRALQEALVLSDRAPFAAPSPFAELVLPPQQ

Structure (SMILES) | GI50 [3] [nM] | TGI [4] [nM] | LC50 [6] [nM] | selectivity ratio [7] | IC80 [8] [nM] | Activity [2] | Activity [16] | further results
COc1cc(/C=C2\C(=O)N(c3c(Cl)cccc3Cl)c3ccccc32)cc(OC)c1O | 1500 | 19400 | 61600 | 41.1 | 10000 | – | – | Activity [1]: inactive; K [2]: 1.6 ×10⁷ /M; Activity [5]: Active; Activity [9]: inactive
COc1cc(/C=C2\C(=O)Nc3ccccc32)cc(OC)c1O | 3500 | 21400 | 72400 | – | – | – | – | GI50 (Hs-578T): 600 nM; GI50 (UACC-257): 600 nM; Activity [1]: inactive; GI50 (OVCAR-3): 600 nM; Activity [10]: Active; GI50 (MCF7): 600 nM; GI50 (cells): 600 nM; GI50 (SR): 600 nM; inhibition [11]: > 90%; inhibition [12]: > 90%; inhibition [13]: > 90%; inhibition [14]: > 90%; GI50 (A498): 600 nM; GI50 (NCI-H522): 600 nM; inhibition [15]: > 90%; GI50 (MDA-MB-468): 600 nM; IC90 [8]: 1360 nM; Activity [9]: inactive
O=C1/C(=C\c2cn(CC(O)CN3CCCCC3)c3ccccc23)c2ccccc2N1c1c(Cl)cccc1Cl (centres undefined) | 1800 | 3200 | 9100 | 5.1 | 890 | inactive | Active | –
COc1cc(/C=C2\C(=O)N(c3cccc(Cl)c3)N=C2C)cc(OC)c1O | – | – | – | – | – | inactive | inactive | growth inhibition (GI) (NCI60): inactive
CC1=NN(c2cccc(Cl)c2)C(=O)/C1=C\c1cn(CC(O)CN2CCCCC2)c2ccccc12 (centres undefined) | 5500 | 16900 | 47800 | 18.4 | 1060 | inactive | Active | GI50 (COLO 205): 1700 nM
COc1cc(C=C2C(=O)N(C)C(=O)N(C)C2=O)cc(OC)c1O | – | – | – | – | – | inactive | inactive | growth inhibition (GI) (NCI60): inactive
O=C1/C(=C\c2ccccn2)c2ccccc2N1c1c(Cl)cccc1Cl | 2000 | 9100 | 27500 | 13.7 | – | inactive | Active | –
CC1=NN(c2cccc(Cl)c2)C(=O)/C1=C\c1c[nH]c2ccc(Br)cc12 | 3900 | 17700 | 50100 | 12.8 | – | inactive | Active | –
COc1ccc2c(c1)c(CC(=O)O)c(C)n2C(=O)c1ccc(Cl)cc1 [INDOMETHACIN] | 64300 | – | – | – | – | – | – | –
